# Laboratory results: paper PMC5618191 (Toxins, 2017)
# Where two headings read alike, the source gives them in different places.
# Experiments:
# KB-3-1 cells = assay: Annexin-V/PI staining (cell death analysis); assay type: cell-based, human; settings: KB-3-1, 24 h
# Procedure: 1. Supplementary Materials and Methods […]
# 1.2 Annexin-V/PI Staining
# KB-3-1 cells were seeded (2x10^5cells/well) and treated on the following day for 24 h with the […]
# Cells were trypsinized, centrifuged (300g, 5 min) and resuspended in 100 µL buffer A (10 mM HEPES, 140 mM NaCl and 2.5 mM CaCl2) and stained for 15 min in the dark with PI (1 µg/mL) and Annexin-V-APC (20 µL/mL, BD Biosciences). Two-hundred µL of buffer A were then added and 10,000 cells were measured by FACS analysis (FACSCalibur; Becton Dickinson). Percentages of viable, early and late apoptotic cells and of necrotic cells were determined by CellQuest Pro software (Becton, Dickinson and Company, NY, USA). […]
# The following primary […]
# antibodies specific for the following targets were diluted 1:1000 in TBST/3% BSA (w/v): PARP, Bak, Bax, Bim, Bcl-xL (polyclonal, Cell Signaling Technology, Beverly, MA, USA), caspase 9, cl. caspase 9 (monoclonal, Cell Signaling Technology) and β-actin (monoclonal, Clone AC-15, Sigma-Aldrich).
# Secondary horseradish peroxidase-labeled antibodies (goat anti-rabbit or anti-mouse, Santa Cruz Biotechnology, Dallas, Texas, TX, USA) were diluted 1:10,000 in TBST/1% BSA. […]
# (b) Mean percentages (± SD) of early (white bars) and late apoptotic (gray bars) and of necrotic cells (black bars) were determined by Annexin-V/PI staining after cells were treated for 24 h with the […]
# [1] = test system: CT-26 murine colon carcinoma cells; assay: Cell viability assay (MTT, 72 h); assay type: cell-based, mouse
# Procedure: (§1) For the cell lines KB-3-1 and SW480 2 × 10^3 cells, for NIH/3T3, CT-26, HaCaT, and GH354 cells 3 × 10^3 cells and for ME-180 and SW620 cells 4 × 10^3 cells were seeded into 96-well pates and incubated at 37 °C (5% CO2) overnight. […] For higher cell confluency, NIH/3T3, CT-26, HaCaT, KB-3-1, and SW480 cells were grown to a cell density of approximately 50–60% before treatment. […] The percentage of viable cells was detected after incubation with 3-(4,5-dimethylthiazol-2-yl)-2,5-diphenyltetrazolium bromide (MTT) at 37 °C for 1–4 h, depending on the cell line, according to the user manual (EZ4U, Biomedica, Vienna, Austria). […] All experiments were conducted using full-growth media with 10% FBS in triplicate and repeated three times. The cell confluency was analyzed by Image J 1.50i (NIH, New York, NY, USA).
# [2] = test system: NIH/3T3 murine non-malignant fibroblasts; assay: Cell viability assay (MTT, 72 h); assay type: cell-based, mouse
# Procedure: as §1
# [3] = CT-26, sparse (5–10% confluency), 72 h
# [4] = NIH/3T3, sparse (5–10% confluency), 72 h
substance,measurement,setting,value
beauvericin,Concentration at which induction of apoptotic cell death was clearly detectable,KB-3-1 cells,> 2 µM
same,Tumor cell viability,"[1]; 0.5 µM, higher density (50–60%), murine models",significantly reduced
same,Mean IC25 ± SD,[1]; [3],1400 ± 200 nM
same,Mean IC75 ± SD,[1]; [3],2700 ± 500 nM
same,IC50,"[1]; CT-26, sparse (5–10% confluency), 72 h, read-out: Mean IC50 ± SD",1800 ± 200 nM
same,Viability of non-malignant cells,"[2]; 1 µM, higher density (50–60%), murine models",no reduction of viability
same,IC50,"[2]; NIH-3T3, higher density (50–60% confluency), 72 h, read-out: IC50 value",9400 nM
same,Mean IC25 ± SD,[2]; [4],1200 ± 600 nM
same,Mean IC75 ± SD,[2]; [4],6500 ± 700 nM
same,IC50,"[2]; NIH/3T3, sparse (5–10% confluency), 72 h, read-out: Mean IC50 ± SD",3100 ± 200 nM
same,IC50 higher for non-malignant NIH/3T3 as compared to CT-26,[2]; sparse conditions,1.7 fold
same,IC75 higher for non-malignant NIH/3T3 as compared to CT-26,[2]; sparse conditions,2.4 fold
